# Laboratory results published in article PMC5909423, “Antibiotic resistance ABCF proteins reset the peptidyl transferase centre of the ribosome to counter translational arrest” (Nucleic Acids Research, 2018).
# Target: T1, LsaA (Enterococcus faecalis, UniProt Q7WT47)
# T1 construct: gene lsa
# Conditions: 1 uM LsaA, 1 mM ATP, 1 uM lincomycin; indirect read-out
# T1 sequence (Q7WT47 entry or part of it): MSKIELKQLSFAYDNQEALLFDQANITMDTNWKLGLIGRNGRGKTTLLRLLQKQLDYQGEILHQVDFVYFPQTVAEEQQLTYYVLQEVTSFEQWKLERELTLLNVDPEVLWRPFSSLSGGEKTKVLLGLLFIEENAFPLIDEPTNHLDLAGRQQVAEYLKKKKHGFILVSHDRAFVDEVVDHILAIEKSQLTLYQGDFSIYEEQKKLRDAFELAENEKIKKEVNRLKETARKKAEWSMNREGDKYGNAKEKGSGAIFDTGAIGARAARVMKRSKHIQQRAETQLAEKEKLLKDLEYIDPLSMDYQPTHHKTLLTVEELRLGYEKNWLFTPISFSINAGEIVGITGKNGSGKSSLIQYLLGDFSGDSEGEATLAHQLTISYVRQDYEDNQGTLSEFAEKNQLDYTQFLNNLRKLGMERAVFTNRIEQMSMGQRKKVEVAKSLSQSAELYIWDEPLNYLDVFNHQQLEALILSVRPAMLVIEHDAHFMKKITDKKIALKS
smiles,measurement,value
Nc1ncnc2c1ncn2[C@@H]1O[C@H](COP(=O)(O)OP(=O)(O)OP(=O)(O)O)[C@@H](O)[C@H]1O [ATP],ATP-dependent rescue of puromycin reaction of lincomycin-inhibited E. faecalis 7,in the absence of ATP LsaA has no effect
